Tests used:
Assay in all cases: β-arrestin based GPCR screen (PathHunter / GPCRmax), antagonist mode
168 GPCRs [1] = target: 168 GPCRs (Homo sapiens, UniProt P25024)
168 GPCRs [2] = target: 168 GPCRs (Homo sapiens, UniProt Q9HBW0)
168 GPCRs [3] = target: T1, 168 GPCRs (Homo sapiens, UniProt Q5NUL3)
T1 sequence (Q5NUL3 1-361): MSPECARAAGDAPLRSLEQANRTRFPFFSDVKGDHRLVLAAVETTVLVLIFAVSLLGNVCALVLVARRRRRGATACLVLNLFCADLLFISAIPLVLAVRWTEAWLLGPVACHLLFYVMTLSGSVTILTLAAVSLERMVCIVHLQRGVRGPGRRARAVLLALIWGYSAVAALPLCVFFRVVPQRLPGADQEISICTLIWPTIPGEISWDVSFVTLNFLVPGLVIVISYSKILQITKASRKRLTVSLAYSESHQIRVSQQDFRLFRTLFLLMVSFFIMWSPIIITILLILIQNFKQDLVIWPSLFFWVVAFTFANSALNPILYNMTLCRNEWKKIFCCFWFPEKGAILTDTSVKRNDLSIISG

168 GPCRs [4] = target: 168 GPCRs (Homo sapiens, UniProt Q8TCW9)
168 GPCRs [5] = target: 168 GPCRs (Homo sapiens, UniProt Q9NSD7)
Chain of 168 GPCRs (Homo sapiens, UniProt Q9NSD7) (Q9NSD7 whole entry): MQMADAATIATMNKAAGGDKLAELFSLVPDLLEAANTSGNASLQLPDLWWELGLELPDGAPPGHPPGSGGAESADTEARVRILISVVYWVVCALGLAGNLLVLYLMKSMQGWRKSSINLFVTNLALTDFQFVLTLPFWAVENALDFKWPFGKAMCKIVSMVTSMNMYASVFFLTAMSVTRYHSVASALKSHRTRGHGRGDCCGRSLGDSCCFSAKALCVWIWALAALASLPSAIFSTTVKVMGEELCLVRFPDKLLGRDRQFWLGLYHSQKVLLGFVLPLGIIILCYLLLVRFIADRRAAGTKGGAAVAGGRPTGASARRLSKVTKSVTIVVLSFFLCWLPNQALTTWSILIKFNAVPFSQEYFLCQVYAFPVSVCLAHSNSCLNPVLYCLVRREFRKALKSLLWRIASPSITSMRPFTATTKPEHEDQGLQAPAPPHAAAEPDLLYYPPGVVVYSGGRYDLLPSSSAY

168 GPCRs [6] = target: T2, 168 GPCRs (Homo sapiens, UniProt Q9Y5Y4)
T2 sequence (Q9Y5Y4 1-395): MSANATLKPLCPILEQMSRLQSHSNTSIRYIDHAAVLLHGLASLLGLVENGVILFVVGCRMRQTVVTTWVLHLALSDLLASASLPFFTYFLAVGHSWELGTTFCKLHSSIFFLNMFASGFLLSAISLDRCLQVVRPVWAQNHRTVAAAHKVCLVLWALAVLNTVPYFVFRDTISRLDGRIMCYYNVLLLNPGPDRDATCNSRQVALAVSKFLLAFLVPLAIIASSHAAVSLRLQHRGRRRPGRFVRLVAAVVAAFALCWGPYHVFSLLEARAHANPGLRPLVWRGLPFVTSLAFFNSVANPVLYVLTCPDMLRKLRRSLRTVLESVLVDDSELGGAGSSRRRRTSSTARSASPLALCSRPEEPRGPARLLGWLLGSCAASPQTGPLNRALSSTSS

168 GPCRs [7] = target: 168 GPCRs (Homo sapiens, UniProt Q969V1)
Chain of 168 GPCRs (Homo sapiens, UniProt Q969V1) (Q969V1 whole entry): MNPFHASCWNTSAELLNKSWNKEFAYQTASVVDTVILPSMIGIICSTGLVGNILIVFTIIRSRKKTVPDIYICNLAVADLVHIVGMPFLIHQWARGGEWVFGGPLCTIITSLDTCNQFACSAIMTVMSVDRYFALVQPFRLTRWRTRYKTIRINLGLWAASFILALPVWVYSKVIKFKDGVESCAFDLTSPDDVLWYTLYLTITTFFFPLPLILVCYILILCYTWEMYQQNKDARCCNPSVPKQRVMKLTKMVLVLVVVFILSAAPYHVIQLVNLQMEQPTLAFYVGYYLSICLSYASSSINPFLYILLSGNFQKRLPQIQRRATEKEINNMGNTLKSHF

168 GPCRs [8] = target: 168 GPCRs (Homo sapiens, UniProt P25025)
168 GPCRs [9] = target: 168 GPCRs (Homo sapiens, UniProt P43220); conditions: GLP1R
Chain of 168 GPCRs (Homo sapiens, UniProt P43220) (P43220 24-463): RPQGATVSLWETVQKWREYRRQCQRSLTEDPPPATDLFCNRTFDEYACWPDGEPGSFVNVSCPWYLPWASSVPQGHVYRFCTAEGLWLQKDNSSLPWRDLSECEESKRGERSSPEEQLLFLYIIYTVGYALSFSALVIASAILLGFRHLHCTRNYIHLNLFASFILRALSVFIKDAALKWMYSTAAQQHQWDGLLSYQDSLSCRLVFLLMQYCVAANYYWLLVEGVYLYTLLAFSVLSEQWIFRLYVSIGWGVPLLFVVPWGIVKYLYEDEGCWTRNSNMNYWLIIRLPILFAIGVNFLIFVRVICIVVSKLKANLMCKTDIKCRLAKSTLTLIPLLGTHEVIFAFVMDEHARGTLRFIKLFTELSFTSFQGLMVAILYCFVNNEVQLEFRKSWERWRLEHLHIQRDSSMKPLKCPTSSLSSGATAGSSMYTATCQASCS

168 GPCRs [10] = target: 168 GPCRs (Homo sapiens, UniProt O95136)
168 GPCRs [11] = target: 168 GPCRs (Homo sapiens, UniProt Q8TDS4); conditions: GPR109A
Chain of 168 GPCRs (Homo sapiens, UniProt Q8TDS4) (Q8TDS4 whole entry): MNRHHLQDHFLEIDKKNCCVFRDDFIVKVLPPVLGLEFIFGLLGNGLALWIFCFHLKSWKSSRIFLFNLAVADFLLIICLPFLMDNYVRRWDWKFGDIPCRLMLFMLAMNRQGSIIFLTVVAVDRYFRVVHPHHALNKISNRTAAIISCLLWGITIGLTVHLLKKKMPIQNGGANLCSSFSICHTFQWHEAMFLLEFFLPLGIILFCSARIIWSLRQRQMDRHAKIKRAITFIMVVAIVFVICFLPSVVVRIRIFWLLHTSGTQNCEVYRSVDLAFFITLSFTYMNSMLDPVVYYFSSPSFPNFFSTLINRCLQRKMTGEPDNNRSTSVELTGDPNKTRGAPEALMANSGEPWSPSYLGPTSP

168 GPCRs [12] = target: 168 GPCRs (Homo sapiens, UniProt P49682)
Chain of 168 GPCRs (Homo sapiens, UniProt P49682) (P49682 whole entry): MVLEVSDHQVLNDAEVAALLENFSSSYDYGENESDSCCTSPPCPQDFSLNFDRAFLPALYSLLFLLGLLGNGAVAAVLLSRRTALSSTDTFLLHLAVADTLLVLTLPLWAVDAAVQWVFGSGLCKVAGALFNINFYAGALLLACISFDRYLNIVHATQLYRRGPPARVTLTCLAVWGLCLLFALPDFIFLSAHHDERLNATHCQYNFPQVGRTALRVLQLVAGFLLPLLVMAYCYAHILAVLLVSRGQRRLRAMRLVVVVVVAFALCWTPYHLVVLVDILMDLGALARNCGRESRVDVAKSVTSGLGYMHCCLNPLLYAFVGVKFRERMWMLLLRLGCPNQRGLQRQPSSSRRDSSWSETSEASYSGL

168 GPCRs [13] = target: 168 GPCRs (Homo sapiens, UniProt Q9GZQ6)
Chain of 168 GPCRs (Homo sapiens, UniProt Q9GZQ6) (Q9GZQ6 whole entry): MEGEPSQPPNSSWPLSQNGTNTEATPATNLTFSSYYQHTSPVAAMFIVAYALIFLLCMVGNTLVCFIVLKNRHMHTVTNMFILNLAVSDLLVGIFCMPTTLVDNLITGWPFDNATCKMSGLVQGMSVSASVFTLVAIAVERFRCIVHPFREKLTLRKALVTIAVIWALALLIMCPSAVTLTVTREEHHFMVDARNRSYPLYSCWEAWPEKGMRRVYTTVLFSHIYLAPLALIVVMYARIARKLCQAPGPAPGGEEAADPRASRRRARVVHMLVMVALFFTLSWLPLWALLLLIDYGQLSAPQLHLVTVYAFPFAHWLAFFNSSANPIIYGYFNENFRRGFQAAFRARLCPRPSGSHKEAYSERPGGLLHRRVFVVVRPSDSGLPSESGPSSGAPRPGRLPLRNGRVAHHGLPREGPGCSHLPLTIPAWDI

168 GPCRs [14] = target: 168 GPCRs (Homo sapiens, UniProt P18825); conditions: ADRA2C, Antagonist
Chain of 168 GPCRs (Homo sapiens, UniProt P18825) (P18825 whole entry): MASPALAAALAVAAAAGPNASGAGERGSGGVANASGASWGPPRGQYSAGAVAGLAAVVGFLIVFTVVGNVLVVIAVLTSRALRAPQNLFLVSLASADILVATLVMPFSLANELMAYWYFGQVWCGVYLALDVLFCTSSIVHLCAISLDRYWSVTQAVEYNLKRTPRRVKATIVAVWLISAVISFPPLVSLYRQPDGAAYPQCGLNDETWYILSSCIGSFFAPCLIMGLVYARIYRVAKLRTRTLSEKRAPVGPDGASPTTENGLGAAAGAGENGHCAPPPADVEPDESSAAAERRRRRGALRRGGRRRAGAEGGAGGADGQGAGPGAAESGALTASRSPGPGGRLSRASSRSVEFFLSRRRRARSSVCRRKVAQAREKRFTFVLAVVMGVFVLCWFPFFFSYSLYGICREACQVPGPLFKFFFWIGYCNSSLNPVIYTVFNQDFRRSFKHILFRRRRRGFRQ

168 GPCRs [15] = target: 168 GPCRs (Homo sapiens, UniProt P08172); conditions: CHRM2, Antagonist
Chain of 168 GPCRs (Homo sapiens, UniProt P08172) (P08172 whole entry): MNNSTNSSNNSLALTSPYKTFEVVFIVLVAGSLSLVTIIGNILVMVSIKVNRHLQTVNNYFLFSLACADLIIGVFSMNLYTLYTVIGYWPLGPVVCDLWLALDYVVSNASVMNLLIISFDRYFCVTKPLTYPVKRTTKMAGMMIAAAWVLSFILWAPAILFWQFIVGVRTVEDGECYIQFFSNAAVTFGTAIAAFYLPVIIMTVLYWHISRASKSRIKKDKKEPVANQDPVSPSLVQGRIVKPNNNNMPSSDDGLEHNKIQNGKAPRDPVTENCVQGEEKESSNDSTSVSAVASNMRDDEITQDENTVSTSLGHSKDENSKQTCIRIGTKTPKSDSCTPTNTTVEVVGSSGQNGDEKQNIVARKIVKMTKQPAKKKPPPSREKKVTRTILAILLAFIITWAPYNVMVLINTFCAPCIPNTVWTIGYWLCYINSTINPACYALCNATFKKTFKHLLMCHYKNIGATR

168 GPCRs [16] = target: 168 GPCRs (Homo sapiens, UniProt P49146); conditions: NPY2R
Chain of 168 GPCRs (Homo sapiens, UniProt P49146) (P49146 whole entry): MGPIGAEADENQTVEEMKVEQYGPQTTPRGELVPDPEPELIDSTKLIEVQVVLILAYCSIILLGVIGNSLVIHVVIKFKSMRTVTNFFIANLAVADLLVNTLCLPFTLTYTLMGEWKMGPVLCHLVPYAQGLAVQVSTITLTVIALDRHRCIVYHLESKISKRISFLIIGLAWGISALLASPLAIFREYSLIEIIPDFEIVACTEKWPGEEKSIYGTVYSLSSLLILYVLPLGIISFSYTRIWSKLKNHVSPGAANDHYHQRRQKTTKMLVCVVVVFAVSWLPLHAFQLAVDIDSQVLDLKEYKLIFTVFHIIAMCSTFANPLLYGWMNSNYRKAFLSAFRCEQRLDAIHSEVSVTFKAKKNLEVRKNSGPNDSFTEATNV

168 GPCRs [17] = target: 168 GPCRs (Homo sapiens, UniProt P41597); conditions: CCR2, Antagonist
Chain of 168 GPCRs (Homo sapiens, UniProt P41597) (P41597 whole entry): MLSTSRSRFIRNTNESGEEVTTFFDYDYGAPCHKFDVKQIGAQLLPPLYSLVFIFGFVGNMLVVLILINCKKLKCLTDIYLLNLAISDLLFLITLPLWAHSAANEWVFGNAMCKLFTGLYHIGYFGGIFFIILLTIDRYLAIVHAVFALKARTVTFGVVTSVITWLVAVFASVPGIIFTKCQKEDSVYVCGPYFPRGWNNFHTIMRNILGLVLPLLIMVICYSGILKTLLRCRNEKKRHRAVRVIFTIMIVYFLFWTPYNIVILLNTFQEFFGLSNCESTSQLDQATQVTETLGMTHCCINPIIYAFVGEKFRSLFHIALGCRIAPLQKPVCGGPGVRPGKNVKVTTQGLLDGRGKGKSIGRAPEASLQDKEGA

Chain of 168 GPCRs (Homo sapiens, UniProt Q9HBW0) (Q9HBW0 whole entry): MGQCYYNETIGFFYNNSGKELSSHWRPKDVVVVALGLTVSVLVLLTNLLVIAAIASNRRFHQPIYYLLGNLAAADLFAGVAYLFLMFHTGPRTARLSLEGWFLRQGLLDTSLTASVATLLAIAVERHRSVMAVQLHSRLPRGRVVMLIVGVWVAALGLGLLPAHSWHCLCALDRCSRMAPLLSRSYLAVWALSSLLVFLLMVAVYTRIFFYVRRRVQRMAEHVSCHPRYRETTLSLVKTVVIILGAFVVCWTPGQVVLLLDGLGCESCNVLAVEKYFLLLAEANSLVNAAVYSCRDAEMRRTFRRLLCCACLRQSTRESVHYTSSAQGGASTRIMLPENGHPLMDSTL
Chain of 168 GPCRs (Homo sapiens, UniProt P25024) (P25024 whole entry): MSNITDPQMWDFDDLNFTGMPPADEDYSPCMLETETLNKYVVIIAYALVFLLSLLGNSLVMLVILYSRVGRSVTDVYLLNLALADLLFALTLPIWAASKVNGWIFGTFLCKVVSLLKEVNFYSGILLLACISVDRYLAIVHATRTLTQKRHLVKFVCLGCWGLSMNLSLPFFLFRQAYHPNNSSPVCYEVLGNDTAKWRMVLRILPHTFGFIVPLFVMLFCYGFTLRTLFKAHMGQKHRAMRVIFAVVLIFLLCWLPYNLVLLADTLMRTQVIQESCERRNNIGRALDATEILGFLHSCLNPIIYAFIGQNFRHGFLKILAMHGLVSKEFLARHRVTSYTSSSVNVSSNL

`CNC(C)C(=O)c1ccc2c(c1)OCO2` (stereo not shown) [methylone, 3,4-methylenedioxy-N-methylcathinone] gave an activity at 10 µM (168 GPCRs [1]; CXCR1, Antagonist mode, 10 uM) of 3.1%, an activity at 1 µM (168 GPCRs [1]; CXCR1, Antagonist, 1 uM) of 12.1% and an activity at 10 µM (168 GPCRs [2]; EDG4, Antagonist mode, 10 uM) of -21%. The activity at 1 µM (168 GPCRs [2]; EDG4, Antagonist, 1 uM) was -10.2%, the activity at 10 µM (168 GPCRs [3]; GPR120, Antagonist mode, 10 uM) was 40.3% and the activity at 1 µM (168 GPCRs [3]; GPR120, Antagonist, 1 uM) was 46.5%. The activity at 10 µM (168 GPCRs [4]; PROKR1, Antagonist mode, 10 uM) was 3.3%, the “% Activity” value (168 GPCRs [4]; PROKR1, Antagonist) was 8.7% and the activity at 10 µM (168 GPCRs [5]; RXFP3, Antagonist mode, 10 uM) was 32.6%. For the same molecule, the activity at 1 µM (168 GPCRs [5]; RXFP3, Antagonist, 1 uM) was 23.1%, the activity at 10 µM (168 GPCRs [6]; CRTH2, Antagonist mode, 10 uM) was 8.9% and the activity at 1 µM (168 GPCRs [6]; CRTH2, Antagonist, 1 uM) was 9%. The activity at 10 µM (168 GPCRs [7]; MCHR2, Antagonist mode, 10 uM) was -4.5%, the activity at 1 µM (168 GPCRs [7]; MCHR2, Antagonist, 1 uM) was 2% and the activity at 10 µM (168 GPCRs [8]; CXCR2, Antagonist mode, 10 uM) was -1%. It also gave an activity at 1 µM (168 GPCRs [8]; CXCR2, Antagonist, 1 uM) of -7.6%, an activity at 10 µM (168 GPCRs [9]; Antagonist mode, 10 uM) of -0.9% and an activity at 1 µM (168 GPCRs [9]; Antagonist, 1 uM) of 3.4%. The activity at 10 µM (168 GPCRs [10]; EDG5, Antagonist mode, 10 uM) was -6.3%, the activity at 1 µM (168 GPCRs [10]; EDG5, Antagonist, 1 uM) was -3.4% and the activity at 10 µM (168 GPCRs [11]; Antagonist mode, 10 uM) was -0.3%. The activity at 1 µM (168 GPCRs [11]; Antagonist, 1 uM) was 1.4%, the activity at 10 µM (168 GPCRs [12]; CXCR3, Antagonist mode, 10 uM) was -3.9% and the activity at 1 µM (168 GPCRs [12]; CXCR3, Antagonist, 1 uM) was 4.5%. It also gave an activity at 10 µM (168 GPCRs [13]; NPFFR1, Antagonist mode, 10 uM) of 27.1%, an activity at 1 µM (168 GPCRs [13]; NPFFR1, Antagonist, 1 uM) of 32% and an activity at 1 µM (168 GPCRs [14]; 1 uM) of -4.3%. For the same molecule, the activity at 10 µM (168 GPCRs [14]; 10 uM) was 17.6%, the activity at 1 µM (168 GPCRs [15]; 1 uM) was -18.5% and the activity at 10 µM (168 GPCRs [15]; 10 uM) was -7.4%. The activity at 10 µM (168 GPCRs [16]; Antagonist mode, 10 uM) was 2%, the activity at 1 µM (168 GPCRs [16]; Antagonist, 1 uM) was 2.3% and the activity at 1 µM (168 GPCRs [17]; 1 uM) was 2%. The activity at 10 µM (168 GPCRs [17]; 10 uM) was 4.9%.
